Consider seven molecules from US8080549B2, “Endothelin receptor antagonists” (CoNCERT Pharmaceuticals, Inc., priority 2007, dated 2011).

Where two headings read alike, the source gives them in different places.

Series [1] deals with T1, CYP3A4 (Homo sapiens, UniProt P08684).
T1 construct: purchased BD Gentest
Nature of the series: Metabolic stability in CYP3A4 Supersomes. It counts as in vitro ADME. The settings on record: human, recombinant CYP3A4 Supersomes, 1 μM test compound. How it is done: (§1) Materials: CYP3A4 Supersomes™ were obtained from BD Gentest. β-nicotinamide adenine dinucleotide phosphate, reduced form (NADPH), magnesium chloride (MgCl2), and dimethyl sulfoxide (DMSO) were purchased from Sigma-Aldrich.
(§2) Determination of Metabolic Stability: 7.5 mM stock solutions of test compounds were prepared in DMSO. The 7.5 mM stock solutions were diluted to 50 μM in acetonitrile (ACN). The 1000 pmol/mL CYP3A4 supersomes were diluted to 50 pmol/mL in 0.1 M potassium phosphate buffer, pH 7.4, containing 3 mM MgCl2. The diluted supersomes were added to wells of a 96-well deep-well polypropylene plate in triplicate. 10 μL of the 50 μM test compound was added to the supersomes and the mixture was pre-warmed for 10 minutes. Reactions were initiated by addition of pre-warmed NADPH solution. The final reaction volume was 0.5 mL and contained 40 pmol/mL CYP3A4 supersomes, 1 μM test compound, and 2 mM NADPH in 0.1 M potassium phosphate buffer, pH 7.4, and 3 mM MgCl2. The reaction mixtures were incubated at 37° C. and 50 μL aliquots were removed at 0, 5, 10, 20, and 30 minutes and added to shallow-well 96-well plates which contained 50 μL of ice-cold ACN with internal standard to stop the reactions. The plates were stored at 4° C. for 20 minutes after which 100 μL of water was added to the wells of the plate before centrifugation to pellet precipitated proteins. Supernatants were transferred to another 96-well plate and analyzed for amounts of parent remaining by LC-MS/MS using an Applied Bio-systems API 4000 mass spectrometer.
(§3) Data analysis: The in vitro t1/2s for test compounds were calculated from the slopes of the linear regression of % parent remaining (ln) vs incubation time relationship. • in vitro t1/2=0.693/k • k=−[slope of linear regression of % parent remaining(ln) vs incubation time]
(§4) Data analysis was performed using Microsoft Excel Software.

Series [2] concerns the target T2, CYP3A4 supersomes (Homo sapiens, UniProt P08684).
T2 construct: purchased BD Gentest
In words: Metabolic stability in CYP3A4 Supersomes. It counts as in vitro ADME. The following applies: for increase of in vitro t1/2 over non-deuterated bosentan: CYP3A4 supersomes, under the assay conditions tested, approximate values; for % Difference: [(deuterated species) − (nondeuterated species)](100)/(nondeuterated species), of Ave t1/2 vs bosentan. How it is done:
as §1, §2, §3, §4

For series [3] the following is noted: active metabolite of bosentan; cited from earlier work.
The mark [4] stands for this setting: pH 7.4, average of Experiments 1 and 2, CYP3A4 supersomes, read-out: Ave t1/2.
The mark [5] stands for this setting: pH 7.4, in vitro half-life, 40 pmol/mL CYP3A4 supersomes, 2 mM NADPH, pH 7.4, 37° C., 0-30 minutes, Experiment 1, read-out: t1/2 (minutes) Experiment 1.
Setting [6] is: pH 7.4, in vitro half-life, 40 pmol/mL CYP3A4 supersomes, 2 mM NADPH, pH 7.4, 37° C., 0-30 minutes, Experiment 2, read-out: t1/2 (minutes) Experiment 2.

T1 sequence (P08684 whole entry): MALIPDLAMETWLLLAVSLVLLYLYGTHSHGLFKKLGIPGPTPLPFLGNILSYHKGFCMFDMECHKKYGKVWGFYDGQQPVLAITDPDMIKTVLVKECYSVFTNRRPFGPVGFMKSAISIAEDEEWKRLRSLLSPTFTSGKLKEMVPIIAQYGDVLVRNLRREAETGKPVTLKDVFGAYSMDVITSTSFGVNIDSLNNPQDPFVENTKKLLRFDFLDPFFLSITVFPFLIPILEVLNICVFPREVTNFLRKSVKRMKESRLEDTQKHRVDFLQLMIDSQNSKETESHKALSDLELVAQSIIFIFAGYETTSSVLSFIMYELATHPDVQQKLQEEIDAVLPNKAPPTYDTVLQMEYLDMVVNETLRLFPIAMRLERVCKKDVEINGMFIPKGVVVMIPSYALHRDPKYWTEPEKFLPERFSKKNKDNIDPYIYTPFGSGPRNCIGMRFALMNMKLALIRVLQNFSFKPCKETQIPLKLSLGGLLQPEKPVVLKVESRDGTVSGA
T2 sequence (P08684 whole entry): as above

As for `COc1ccccc1Oc1c(NS(=O)(=O)c2ccc(C(C)(C)C)cc2)nc(-c2ncccn2)nc1OCCO` [Bosentan, N[6-(2-hydroxyethoxy)-5-(2-methoxyphenoxy)-2-pyrimidin-2-yl-pyrimidin-4-yl]-4-tert-butyl-benzenesulfonamide, reference compound], the half-life at 1 μM amounted to 35.8 min in series [1] (setting [4]), 34.3 min in series [1] (setting [5]) and 37.2 min in series [1] (setting [6]).

Turning to `[2H]C([2H])([2H])Oc1ccccc1Oc1c(NS(=O)(=O)c2ccc(C(C([2H])([2H])[2H])(C([2H])([2H])[2H])C([2H])([2H])[2H])cc2)nc(-c2ncccn2)nc1OCCO` [Compound 101, 4-(tert-Butyl-d9)-N-(6-(2-hydroxyethoxy)-5-(2-(methoxy-d3)-phenoxy)-2,2′-bipyrimidin-4-yl)benzenesulfonamide], in series [2], the “increase of in vitro t1/2 over non-deuterated bosentan” value was around 15%. The “% Difference” value in series [2] is reported as 15.1%. The half-life at 1 μM came to 41.2 min in series [1] (setting [4]), 41 min in series [1] (setting [5]) and 41.3 min in series [1] (setting [6]).

Take `[2H]C([2H])([2H])Oc1ccccc1Oc1c(NS(=O)(=O)c2ccc(C(C)(C)C)cc2)nc(-c2ncccn2)nc1OCCO` [Compound 102, 4-tert-Butyl-N-(6-(2-hydroxyethoxy)-5-(2-(methoxy-d3)-phenoxy)-2,2′-bipyrimidin-4-yl)benzenesulfonamide]: the “increase of in vitro t1/2 over non-deuterated bosentan” value in series [2] is around 29%. The “% Difference” value in series [2] is recorded as 29.1%. Besides, the half-life at 1 μM in series [1] (setting [4]) was found to be 46.2 min; in series [1] (setting [5]), 45.7 min; in series [1] (setting [6]) it was 46.8 min.

In the case of `[2H]C([2H])([2H])C(c1ccc(S(=O)(=O)Nc2nc(-c3ncccn3)nc(OCCO)c2Oc2ccccc2OC)cc1)(C([2H])([2H])[2H])C([2H])([2H])[2H]` [Compound 103, 4-(tert-Butyl-d9)-N-(6-(-2-hydroxyethoxy)-5-(2-methoxyphenoxy)-2,2′-bipyrimidin-4-yl)benzenesulfonamide], the “% Difference” value in series [2] is 6.7%. The half-life at 1 μM in series [1] (setting [4]) worked out at 38.2 min; in series [1] (setting [5]), 35.9 min; in series [1] (setting [6]), 40.5 min.

Turning to `[2H]C([2H])(O)COc1nc(-c2ncccn2)nc(NS(=O)(=O)c2ccc(C(C)(C)C)cc2)c1Oc1ccccc1OC` [Compound 104, 4-tert-Butyl-N-(6-(2-hydroxy-2,2-d2-ethoxy)-5-(2-methoxyphenoxy)-2,2′-bipyrimidin-4-yl)benzenesulfonamide], in series [2], the “% Difference” value was −11.7%. Moreover, the figures for the half-life at 1 μM in series [1] (setting [4]), in series [1] (setting [5]) and in series [1] (setting [6]) were 31.6 min, 30.9 min and 32.4 min, respectively.

`[2H]C([2H])(O)COc1nc(-c2ncccn2)nc(NS(=O)(=O)c2ccc(C(C([2H])([2H])[2H])(C([2H])([2H])[2H])C([2H])([2H])[2H])cc2)c1Oc1ccccc1OC([2H])([2H])[2H]` [Compound 106, 4-(tert-Butyl-d9)-N-(6-(2-hydroxy-2,2-d2-ethoxy)-5-(2-(methoxy-d3)phenoxy)-2,2′-bipyrimidin-4-yl)benzenesulfonamide]: in series [2], the “increase of in vitro t1/2 over non-deuterated bosentan” value is given as around 54%. Besides, in series [2], the “% Difference” value is 54.2%. Also, the half-life at 1 μM was found to be 55.2 min in series [1] (setting [4]), 53.3 min in series [1] (setting [5]) and 57.2 min in series [1] (setting [6]).

`COc1ccccc1Oc1c(NS(=O)(=O)c2ccc(C(C)(C)CO)cc2)nc(-c2ncccn2)nc1OCCO` [hydroxybosentan]: the “share of the overall pharmaceutical properties of bosentan” value in series [3] is listed as “up to 20%”.
